Results on 2 compounds are retold here after US20240415124A1, “HERBICIDAL COMPOSITION CONTAINING 3-(2-CHLORO-4-FLUORO-5-(3-METHYL-2,6-DIOXO-4-TRIFLUOROMETHYL-3,6-DIHYDROPYRIMIDIN-1(2H)-YL)PHENYL)-5-METHYL-4,5-DIHYDROISOXAZOLE-5-CARBOXYLIC ACID ETHYL ESTER AND GLUFOSINATE-P AND USE THEREOF” (NANTONG JIANGSHAN AGROCHEMICAL & CHEMICALS CO., LTD., priority 2022, published 2024).

The subject of the assay is Erigeron canadensis. The assay can be described thus: Laboratory activity determination test (greenhouse pot test, stem and leaf spray, fresh weight inhibition, Gowing method). The assay is classed as in vivo. The note with it: single pesticide. On the procedure: (1) Test objective: Inhibitory effects of 3-(2-chloro-4-fluoro-5-(3-methyl-2,6-dioxo-4-trifluoromethyl-3,6-dihydropyrimidin-1(2H)-yl)phenyl)-5-methyl-4,5-dihydroisoxazole-5-carboxylic acid ethyl ester, glufosinate-P and different mixed compositions of the two pesticides on Erigeron canadensis under potting conditions in a greenhouse are determined, and a combined action of the two pesticides is evaluated. […] After a pesticide liquid was air-dried, a test material was placed in a greenhouse for cultivation. […] A method for evaluating the combined action of the two pesticides after compounding was used with reference to a Gowing method in Pesticides Guidelines for Laboratory Bioactivity Tests: Determining Combined Action of Mixtures.
Fresh weight inhibition rate %=(fresh weight of a control group—fresh weight of a treatment group)/fresh weight of a control group*100.
When E-E0 is greater than −10 and less than 10, an additive effect is achieved. When E-E0 is equal to or less than −10, an antagonistic effect is achieved.

SMILES strings stand for the structures.

Take `CCOC(=O)C1(C)CC(c2cc(-n3c(=O)cc(C(F)(F)F)n(C)c3=O)c(F)cc2Cl)=NO1` (stereo not shown) [3-(2-chloro-4-fluoro-5-(3-methyl-2,6-dioxo-4-trifluoromethyl-3,6-dihydropyrimidin-1(2H)-yl)phenyl)-5-methyl-4,5-dihydroisoxazole-5-carboxylic acid ethyl ester]: the “Measured control efficacy E (%)” value (dosage 1 g a.i./mu) is 33.82%; the “Measured control efficacy E (%)” value (dosage 2 g a.i./mu) is given as 44.46%; the “Measured control efficacy E (%)” value (dosage 3 g a.i./mu) is given as 72.89%; the “Measured control efficacy E (%)” value (dosage 4 g a.i./mu) is on record as 80.22%; the “Measured control efficacy E (%)” value (dosage 5 g a.i./mu) was 89.09%.
With `CP(=O)(O)CC[C@H](N)C(=O)O` [Glufosinate-P], the “Measured control efficacy E (%)” value (dosage 8 g a.i./mu) stood at 21.63%; the “Measured control efficacy E (%)” value (dosage 12 g a.i./mu) is on record as 51.94%; the “Measured control efficacy E (%)” value (dosage 16 g a.i./mu) is given as 67.92%; the “Measured control efficacy E (%)” value (dosage 20 g a.i./mu) is recorded as 74.07%; the “Measured control efficacy E (%)” value (dosage 24 g a.i./mu) is recorded as 78.07%.
